Measured values reported in patent US12493042B2, “Molecules and methods for iterative polypeptide analysis and processing” (priority 2013, dated 2025).

Legend:
[1] = molecular target: T1, Edmanase (Edman degradation enzyme, modified cruzain) (Trypanosoma cruzi, UniProt P25779, A260C/C147G/G187S/L282Y); type: biochemical; details: PITC-derivatized X-AMC substrate, 30 degrees, excitation 370 nm, emission 460 nm
T1 construct: His tag; made in house; host or cells: E. coli BL-21(De3), pet42(a)
Method: (§1) Single amino acid, aminomethylcoumarin (AMC) containing compounds were obtained from BAChem (Bubendorf, Switzerland). These included Arg-AMC, Asn-AMC, Phe-AMC, Met-AMC, Ala-AMC, and Pro-AMC. Phenylisothiocyanate (PITC) was purchased from Thermo-scientific and coupled to the N-terminus of each substrate by incubating for 10 minutes at room temperature in a 100 μL solution of acetonitrile:pyridine:water (10:5:3) with 5 μL of PITC. The derivatized substrate was then dried by rotary evaporation and suspended in 250 μL of 1× Phosphate Buffered Saline (PBS).
(§2) The ability of the Edman degradation enzyme to perform N-terminal cleavage on six substrates of the form Ed-X-AMC, where Ed denotes the Edman reagent, X is an amino acid from the set (Ala, […], Phe, Met, Pro, Arg), and AMC is the fluorogenic […] group was characterized. Cleavage of the X-AMC bond was monitored by the appearance of fluorescence (FIG. 6).
(§3) All kinetic measurements were performed in a 96-well corning plate on a BioTek Synergy2 plate reader at 30 degrees. Reactions were started by adding 5-20 μL of purified enzyme to 100 μL of 10 mM substrate solution. Final enzyme concentration was between 1 nM and 100 nM, depending on the experiment. Fluorescence of the cleaved product was measured by exciting at 370 nm (30 second intervals for 1-10 hours) and monitoring emissions at 460 nm. A standard curve using AMC from Invitrogen was referenced quantitate the amount of product formation.

[2] = molecular target: Edmanase (Edman degradation enzyme; Trypanosoma cruzi cruzain variant C25G/G65S/A138C/L160Y, SEQ ID NO: 29) (Trypanosoma cruzi, UniProt P25779, A260C/A295H/A296K/C147G/E217T/G187S/G216A/L282Y/N191D/Q141S/Q281S/S151A); type: biochemical; details: Ed-X-AMC (PITC-derivatized) substrate; 30 degrees; 1 nM-100 nM enzyme; excitation 370 nm, emission 460 nm
Source text: (§4) A synthetic gene containing the Edman degradation enzyme was purchased from GenScript. The gene encoded a modified version of the cruzian enzyme of T. cruzi having the following substitution mutations: C25G, G65S, A138C, and L160Y.
(§5) The gene was inserted between an NdeI andan XhoI site in a pet42(a) (Novagen) expression vector and transformed into E. coli, BL-21(De3) chemically competent cells. Protein was then over-expressed following Studier's auto-induction protocol. Bacterial cells were harvested by centrifugation of the cell culture at 5000 rpm and 4° C. for 10 minutes. Cells were then suspended in 1×PBS with 10% glycerol and 6M guanidine chloride, pH 7.4. Cells were then lysed by sonication (15 seconds at 20% power, 8 times on ice). The cell lysate was centrifuged at 18000 rpm, 4 degrees for 20 minutes. The supernatant was then filtered through a 0.2 μm cellulose acetate filter. The filtered lysate was loaded onto a 5 mL HisTrap (Ni-NTA) column and washed with 5 column volumes of binding buffer (50 mM Tris-HCl, 150 mM NaCl, 6M guanidine chloride, 25 mM imidazole). Bound protein was then eluted in 50 mM Tris-HCl, 150 mM NaCl, 6M guanidine chloride, 500 mM imidazole. Purified fractions were prepared for SDS-PAGE analysis by mixing 2 parts sample with 1 part 4× loading dye. Samples were analyzed on 16% SDS-PAGE precast gels, and visualized by Coomassie staining. The purified protein was then refolded by successive, overnight dialyses into 1×PBS containing 5M, 3M, 1M, 0.5M, and 0M guanidine chloride. Protein concentration was determined using the calculated molar extinction coefficient and measuring the A280 on an ND-8000 spectrophotometer (Thermo Fisher Scientific).
as §1, with “(PBS). Inhibitor compound, 1-(2-anilino-5-methyl-1,3-thiazol-4-yl)-ethanone, was ordered from Sigma-Aldrich (St. Louis, MO).” for “(PBS).”
as §2, §3

peptides = molecular target: T2, peptides (Thermus thermophilus, UniProt Q5SGX2, A229N/A231G/F152V/F205A/F336A/G338T/H142N/H143G/H212A/H232D/H287G/I228V/K234Y/K289N/L100D/L154K/L165D/L303D/L340G/M230E/W153G/Y257T); assay: Binding of Phe NAAB mutant to peptides compared with wild-type protein
T2 construct: a truncated version of wild-type Thermus Thermophilus PheRS (residues 86-350)
T2 sequence (Q5SGX2 other isoform, or with tags, fused parts or gaps with the stated changes): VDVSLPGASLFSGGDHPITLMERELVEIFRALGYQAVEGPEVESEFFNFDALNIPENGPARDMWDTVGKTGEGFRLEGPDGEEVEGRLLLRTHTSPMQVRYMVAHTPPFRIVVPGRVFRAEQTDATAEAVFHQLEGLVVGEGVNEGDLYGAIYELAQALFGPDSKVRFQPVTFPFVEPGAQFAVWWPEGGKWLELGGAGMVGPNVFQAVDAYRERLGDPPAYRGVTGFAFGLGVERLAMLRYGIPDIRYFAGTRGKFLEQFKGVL

[3] = test system: Cc1cc(=O)oc2cc(NC(=O)[C@H](CCCNC(=N)N)NC(=S)Nc3ccccc3)ccc12; assay: purified protein, by the assay type; type: biochemical, Trypanosoma cruzi; details: other: Ed-X-AMC (PITC-derivatized) substrate; 30 degrees; 1 nM-100 nM enzyme; excitation 370 nm, emission 460 nm; pH 7.4; 30.0 °C
Source text: as §4, §5
as §1, with “(PBS). Inhibitor compound, 1-(2-anilino-5-methyl-1,3-thiazol-4-yl)-ethanone, was ordered from Sigma-Aldrich (St. Louis, MO).” for “(PBS).”
as §2, §3

[4] = test system: Cc1cc(=O)oc2cc(NC(=O)[C@H](Cc3ccccc3)NC(=S)Nc3ccccc3)ccc12; assay: purified protein, by the assay type; type: biochemical, Trypanosoma cruzi; details: other: Ed-X-AMC (PITC-derivatized) substrate; 30 degrees; 1 nM-100 nM enzyme; excitation 370 nm, emission 460 nm; pH 7.4; 30.0 °C
Source text: as §4, §5
as §1, with “(PBS). Inhibitor compound, 1-(2-anilino-5-methyl-1,3-thiazol-4-yl)-ethanone, was ordered from Sigma-Aldrich (St. Louis, MO).” for “(PBS).”
as §2, §3

[5] = molecular target: N-terminal amino acid of peptides; assay: Biolayer interferometry binding assays between peptides and purified NAABs; details: 1×PBS; dissociation rate constant divided by association rate constant, 1:1 model; read-out: Measured Affinity Constants
Method: Real time binding assays between peptides and purified NAABs were performed using biolayer interferometry on a Blitz system (Fortebio, Menlo Park, CA). This system monitors interference of light reflected from the surface of a fiber optic sensor to measure the thickness of molecules bound to the sensor surface. Sensors coated with peptides were allowed to bind to the NAABs in 1×PBS at several different protein concentrations. Binding kinetics were calculated using the Blitz software package, which fit the observed binding curves to a 1:1 binding model to calculate the association rate constants. NAABs were allowed to dissociate by incubation of the sensors in 1×PBS. Dissociation curves were fit to a 1:1 model to calculate the dissociation rate constants. Binding affinities were calculated as the kinetic dissociation rate constant divided by the kinetic association rate constant.
Each square in the binding matrix represents the binding affinity for a single NAAB with an N-terminal amino acid as measured by biolayer interferometry. Each row in the matrix contains all the binding data for a single NAAB, and each column contains the binding data for a single N-terminal amino acid (shown by single-letter code).

Q: `C[C@H](N)C(=O)O` [Alanine] was tested. Which Kcat [1] did it give?
A: 0.55 s⁻¹

Q: What about the Km [1] of the same compound?
A: 21.3 µM

Q: Which Kcat [2] does the source give for `Cc1cc(=O)oc2cc(NC(=O)[C@H](CCCNC(=N)N)NC(=S)Nc3ccccc3)ccc12` [Arginine] here?
A: 0.087 s⁻¹

Q: Which results are given for `CSCC[C@H](NC(=S)Nc1ccccc1)C(=O)Nc1ccc2c(C)cc(=O)oc2c1` [Methionine]?
A: Kcat [2]: 0.54 s⁻¹; Km [2]: 272 µM

Q: With `N[C@@H](Cc1ccccc1)C(=O)O` [Phenylalanine] as the compound, how does the “binding to peptides compared to the wild-type protein” value (peptides) read?
A: Tighter binding

Q: For `O=C(O)[C@@H]1CCCN1` [Proline], which Kcat [1] is on record?
A: 0.0014 s⁻¹

Q: And the Km [1]?
A: 252 µM

Q: What does the source list for “Edmanase (Edman degradation enzyme; Trypanosoma cruzi cruzain variant C25G/G65S/A138C/L160Y, SEQ ID NO: 29) (Trypanosoma cruzi; A260C/A295H/A296K/C147G/E217T/G187S/G216A/L282Y/N191D/Q141S/Q281S/S151A)”?
A: Km [3]: 167.8 µM; Km [4]: 122.8 µM; kcat [4]: 0.47 s⁻¹; kcat/Km [4]: 3800 M⁻¹ s⁻¹

Q: With Glutamate as the compound, how does the Kd [5] read?
A: 2.12 µM
